Test system: Gambusia affinis
Experiment: Ichthyotoxicity against Gambusia affinis at 10 ppm
Assay type: organism-based
Conditions: in vivo; call rule not given here

| Compound | Activity |
| --- | --- |
| CC(=O)O[C@H]1C[C@@H]2[C@@]3(C)CCCC(C)(C)[C@@H]3CC[C@@]2(C)[C@@H]2CC=C(C=O)[C@H](C=O)[C@@]12C [SCALARADIAL] | Toxic |
| CC1(C)CCC[C@]2(C)[C@H]3CC(=O)[C@]4(C)[C@@H]5C(=CC[C@H]4[C@]3(C)CC[C@@H]12)CO[C@H]5O | Toxic |
| CC1(C)CCC[C@]2(C)[C@H]3CC(=O)[C@]4(C)[C@@H](C=O)C(C=O)=CC[C@H]4[C@]3(C)CC[C@@H]12 | Toxic |
| CC(=O)O[C@@H]1OCC2=CC[C@H]3[C@]4(C)CC[C@H]5C(C)(C)CCC[C@]5(C)[C@H]4C[C@H](OC(C)=O)[C@]3(C)[C@H]21 [DEOXOSCALARIN ACETATE] | Not Active |
| CC1(C)CCC[C@]2(C)[C@H]3C[C@H](O)[C@]4(C)[C@@H](C=O)C(C=O)=CC[C@H]4[C@]3(C)CC[C@@H]12 | Toxic |
| CC(=O)O[C@H]1C[C@@H]2[C@@]3(C)CCCC(C)(C)[C@@H]3CC[C@@]2(C)[C@@H]2CC=C3CO[C@@H](O)[C@@H]3[C@@]12C | Toxic |
| CC(=O)O[C@@H]1OCC2=CC[C@H]3[C@]4(C)CC[C@H]5C(C)(C)CCC[C@]5(C)[C@H]4CC(=O)[C@]3(C)[C@H]21 | Toxic |

Source: ChEMBL document CHEMBL1148986, “Scalarane metabolites of the nudibranch Glossodoris rufomarginata and Its dietary sponge from the South China Sea” (J Nat Prod, 2004)
